Values joined by “and” are separate entries in the source; they are usually repeats but may differ in a detail not shown here. Equal values may be shown once. Read-outs that look alike come from different tables or passages of the source.
How the values were obtained:
[1] = assay type: in vivo, mice
Text: Two groups of mice are used.

M-6 melanoma = assay: Morphologic parameters of M-6 melanoma in nude mice (light microscopy); assay type: in vivo, mouse (mouse (mouse (mouse (mouse (mouse (mouse (mouse (mouse (mouse (mouse (mouse (human melanoma xenograft) melanoma xenograft) melanoma xenograft) melanoma xenograft) melanoma xenograft) melanoma xenograft) melanoma xenograft) melanoma xenograft) melanoma xenograft) melanoma xenograft) melanoma xenograft) melanoma xenograft)
Protocol: The study was conducted on 10-12 week old thymus free (nude) female Balb/C mice weighing 20-22 grams (breeding of the Russian Cancer Research Center (RCRC) named after N. N. Blokhin of the Russian Academy of Medical Sciences (RAMS)). A human melanoma strain earlier obtained from primary clinical material was taken from the bank of tumor strains of the RCRC of the RAMS for transplantation to thymus free “nude” mice. Tumor was disintegrated by Versen solution with vital Trypan blue staining and inoculated subcutaneously to mice in the amount of 1.6 million cells per mouse.
Dicarbamine was administered to mice intragastrically using a metal probe daily at dose 1.0 mg/kg beginning 4 days before the tumor inoculation and thereafter for 10-11 days (administration course up to 15 days). The mice were sacrificed with ether anesthesia in 12, 24 and 48 hours after the last administration.
Four morphologic parameters, such as the number of cells with pigment and the number of cells with apoptosis signs (capability to differentiate), the number of mitoses (proliferation activity), and necrosis area, were determined to monitor the degree of differentiation and proliferation of M-6 melanoma cells in the groups of control animals and in the Dicarbamine groups. These parameters were determined dynamically and correlated with general morphologic picture of a tumor growth as an integral sign. For this purpose, the tumors were removed from the mice, placed into formalin, and histologically processed for light microscopy.

human M-6 melanoma = assay: Human M-6 melanoma growth dynamics, Dicarbamine combined with chemotherapy; assay type: in vivo
Protocol: The study was conducted according to the technique described in Example 3. Dicarbamine was administered daily p.o. at the single dose 4.5 mg/kg for 3 weeks from the moment of tumor appearance (from day 15 to day 36). In the groups of combined treatment Dicarbamine was also administered daily at the single dose 4.5 mg/kg for 3 weeks (days 15-36) in combination with a single administration of anti-tumor cytostatic agents Cysplatin at dose 6 mg/kg i.v. (day 25) and Aranoza at dose 40 mg/kg i.p. (day 27). Cytostatic therapy with was commenced when the average tumor volume reached 200±62 mm^3. At days 18, 25, 33, 39, 46 and 53 from the transplantation tumor volumes were measured and the value Vt/Vt−1 was calculated and expressed as a percentage.

inoculated B-16 melanoma = assay: Distribution of tumor cells by cell cycle phases (DNA content); assay type: in vivo, mice; conditions: 0.5 mg/kg intragastrically daily for 10 days
Protocol: Tests were done on inoculated B-16 melanoma. The effect of Dicarbamine on the distribution of tumor cells was studied on the basis of DNA content at different times following administration of the preparation. From day 6 after the tumor inoculation mice for 10 days were daily intragastrically given with 0.5 mg/kg Dicarbamine. Animals were sacrificed with subsequent investigation of tumor material at days 10, 12, 16 and 18 after inoculation, i.e. days 5 and 7 respectively after Dicarbamine administration as well as in 2 and 4 days after termination of Dicarbamine 10-day dosing.

[2] = 1.0 mg/kg daily, 12 hours since withdrawal
[3] = 1.0 mg/kg daily, 24 hours since withdrawal
[4] = 1.0 mg/kg daily, 48 hours since withdrawal

For O=C(O)CCCC(=O)NCCc1c[nH]cn1 [Dicarbamine], the “Cellularity of bone marrow (number of cells)” value (shortened to “Cellularity of bone marrow”) ([1]; CPH 200 mg/kg (Dicarbamine group: 0.5 mg/kg 5 days prior and 5 days after), day 3) was 14.5 ± 3.43 millions, the “Cellularity of bone marrow” value ([1]; day 5 after CPH) was 21.55 ± 1.92 millions and the “Cellularity of bone marrow” value ([1]; day 7 after CPH) was 32.35 ± 3.57 millions. For the same compound, the “Cellularity of bone marrow” value ([1]; day 10 after CPH) was 33.8 ± 3.85 millions, the “Cellularity of bone marrow” value ([1]; day 13 after CPH) was 32.6 ± 5.22 millions and the “Cellularity of bone marrow” value ([1]; day 17 after CPH) was 28.25 ± 3.02 millions. The “Cellularity of bone marrow” value ([1]; day 21 after CPH) was 30.4 ± 2.75 millions, the Terms of death (CPH 50 + Cysplatin 2 mg/kg) was “no” and the Total leukocyte number (CPH 50 + Cysplatin 2 mg/kg, day 0) was 11.30 ± 2.30 thousand in mm^3. The Total leukocyte number (CPH 50 + Cysplatin 2 mg/kg, day 3) was 6.70 ± 1.15 thousand in mm^3, the Total leukocyte number (CPH 50 + Cysplatin 2 mg/kg, day 5) was 17.00 ± 5.17 thousand in mm^3 and the Total leukocyte number (CPH 50 + Cysplatin 2 mg/kg, day 7) was 14.50 ± 2.00 thousand in mm^3. The Total leukocyte number (CPH 50 + Cysplatin 2 mg/kg, day 21) was 12.40 ± 0.99 thousand in mm^3, the Terms of death (CPH 100 + Cysplatin 4 mg/kg) was “no” and the Total leukocyte number (CPH 100 + Cysplatin 4 mg/kg, day 0) was 11.30 ± 2.30 thousand in mm^3. It also gave a Total leukocyte number (CPH 100 + Cysplatin 4 mg/kg, day 3) of 4.14 ± 0.60 thousand in mm^3, a Total leukocyte number (CPH 100 + Cysplatin 4 mg/kg, day 5) of 11.40 ± 1.10 thousand in mm^3 and a Total leukocyte number (CPH 100 + Cysplatin 4 mg/kg, day 7) of 14.90 ± 1.32 thousand in mm^3. For the same compound, the Total leukocyte number (CPH 100 + Cysplatin 4 mg/kg, day 21) was 11.80 ± 1.32 thousand in mm^3, the Total leukocyte number (CPH 200 + Cysplatin 8 mg/kg i.p. once (Dicarbamine group: 0.5 mg/kg daily 20 days), day 0) was 11.30 ± 2.30 thousand in mm^3 and the Total leukocyte number (CPH 200 + Cysplatin 8 mg/kg, day 3) was 2.32 ± 0.49 thousand in mm^3. The Total leukocyte number (CPH 200 + Cysplatin 8 mg/kg, day 5) was 6.60 ± 0.90 thousand in mm^3, the Total leukocyte number (CPH 200 + Cysplatin 8 mg/kg, day 7) was 10.40 ± 1.54 thousand in mm^3 and the Total leukocyte number (mouse, in vivo) was 12.30 ± 1.56 thousand in mm^3. For the same compound, the Apoptosis (M-6 melanoma; [2]) was 0.1–0.2%, the Cells with pigment (M-6 melanoma; [2]) was 2–3% and the Mitoses (M-6 melanoma; [2]) was 3–5%. For the same compound, the Apoptosis (M-6 melanoma; [3]) was 0.2–0.3%, the Cells with pigment (M-6 melanoma; [3]) was 2–4% and the Mitoses (M-6 melanoma; [3]) was 3–5%. For the same compound, the Necrosis area (M-6 melanoma; [3]) was 7–9%, the Apoptosis (M-6 melanoma; [4]) was 0.2–0.3% and the Cells with pigment (M-6 melanoma; [4]) was 3–5%. For the same compound, the Mitoses (M-6 melanoma; [4]) was 3–5%, the Necrosis area (M-6 melanoma; [4]) was 8–10% and the Necrosis area (M-6 melanoma; 1.0 mg/kg intragastrically daily up to 15 days, 12 hours since withdrawal) was 6–7%. For the same compound, the “Vt/Vt−1, M ± m” value (human M-6 melanoma; Dicarbamine 4.5 mg/kg p.o. days 15-36 + Cysplatin 6 mg/kg i.v. + Aranoza 40 mg/kg i.p., 25 Day) was 182.0±60.0% and 182.0 + 60.0** %, the “Vt/Vt−1, M ± m” value (human M-6 melanoma; Dicarbamine + Cysplatin + Aranoza, 33 Day) was 191.0 + 71.0% and the “Vt/Vt−1, M ± m” value (human M-6 melanoma; Dicarbamine + Cysplatin + Aranoza, 39 Day) was 24.5 + 17.4%. The “Vt/Vt−1, M ± m” value (human M-6 melanoma; Dicarbamine + Cysplatin + Aranoza, 46 Day) was 28.7 + 9.8%, the “Vt/Vt−1, M ± m” value (human M-6 melanoma; Dicarbamine + Cysplatin + Aranoza, 53 Day) was 8.0 + 30.6% and the “Vt/Vt−1, M ± m” value (human M-6 melanoma; Dicarbamine alone 4.5/94.5 mg/kg p.o. days 15-36, 25 Day) was 166.0±93.0%. The “Vt/Vt−1, M ± m” value (human M-6 melanoma; Dicarbamine alone, 33 Day) was 276.0 ± 104.0%, the “Vt/Vt−1, M ± m” value (human M-6 melanoma; Dicarbamine alone, 39 Day) was 39.8 ± 27.3% and the “Vt/Vt−1, M ± m” value (human M-6 melanoma; Dicarbamine alone, 46 Day) was 19.6 ± 17.5%. For the same compound, the “Vt/Vt−1, M ± m” value (human M-6 melanoma; Dicarbamine alone, 53 Day) was 4.2 + 22.5%, the “increase in the portion of IIG^2 cells” value (inoculated B-16 melanoma) was 12-14% and the “increase of the portion of interphase tumor cells (IIG^1)” value (inoculated B-16 melanoma) was “≈ 25%”. For the same compound, the “portion of proliferating cells (constant)” value (inoculated B-16 melanoma) was “≈ 30%”.

— patent US7759313B2, “Induction method for cell differentiation” (Obschetstvo S Ogranichennoi Otvetstvennostiyu …, priority 2002, dated 2010)
